Experimental data published in PubChem BioAssay AID256 (DTP/NCI, 2004).
Values joined by “and” are separate entries in the source; they are usually repeats but may differ in a detail not shown here. Equal entries are not always repeated. Toxic doses and inconclusive results are not listed.

Test system: CD2F1 mice, L1210 leukemia ip, survival T/C
Experiment: NCI In Vivo Anticancer Drug Screen. Data for tumor model L1210 Leukemia (intraperitoneal) in CD2F1 (CDF1) mice
Conditions: higher = longer survival
In short: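 Mice carrying a transplanted tumor received test compound or vehicle alone. The value is the measurement in the treated group divided by that in the vehicle-treated control group.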

[1] = endpoint: mean survival time, dose: 25.0 mg/kg/injection, schedule: Q01DX009 (ip), vehicle: saline with Tween-80
[2] = endpoint: mean survival time, dose: 100.0 mg/kg/injection, schedule: Q04DX003 (ip), vehicle: saline with Tween-80
[3] = endpoint: mean survival time, dose: 200.0 mg/kg/injection, schedule: Q04DX003 (ip), vehicle: saline with Tween-80
[4] = endpoint: mean survival time, dose: 400.0 mg/kg/injection, schedule: Q04DX003 (ip), vehicle: saline with Tween-80
[5] = endpoint: mean survival time, dose: 100.0 mg/kg/injection, schedule: Q01DX001 (ip), vehicle: saline with Tween-80
[6] = endpoint: mean survival time, dose: 200.0 mg/kg/injection, schedule: Q01DX001 (ip), vehicle: saline with Tween-80
[7] = endpoint: mean survival time, dose: 25.0 mg/kg/injection, schedule: Q01DX009 (ip), vehicle: Klucel (hydroxypropylcellulose) (HPC)
[8] = endpoint: mean survival time, dose: 50.0 mg/kg/injection, schedule: Q01DX009 (ip), vehicle: Klucel (hydroxypropylcellulose) (HPC)
[9] = endpoint: mean survival time, dose: 100.0 mg/kg/injection, schedule: Q01DX009 (ip), vehicle: Klucel (hydroxypropylcellulose) (HPC)
[10] = endpoint: mean survival time, dose: 200.0 mg/kg/injection, schedule: Q01DX009 (ip), vehicle: Klucel (hydroxypropylcellulose) (HPC)
[11] = endpoint: mean survival time, dose: 50.0 mg/kg/injection, schedule: Q04DX003 (ip), vehicle: saline with Tween-80
[12] = endpoint: mean survival time, dose: 12.5 mg/kg/injection, schedule: Q01DX009 (ip), vehicle: Klucel (hydroxypropylcellulose) (HPC)
[13] = endpoint: mean survival time, dose: 50.0 mg/kg/injection, schedule: Q01DX009 (ip), vehicle: saline with Tween-80
[14] = endpoint: mean survival time, dose: 100.0 mg/kg/injection, schedule: Q01DX009 (ip), vehicle: saline with Tween-80
[15] = endpoint: mean survival time, dose: 200.0 mg/kg/injection, schedule: Q01DX009 (ip), vehicle: saline with Tween-80

CN1CCCN(C)C1c1cc(Cl)ccc1O
T/C (endpoint: mean survival time, dose: 6.25 mg/kg/injection, schedule: Q01DX009 (ip), vehicle: saline with Tween-80): 98 % of control | T/C (endpoint: mean survival time, dose: 12.5 mg/kg/injection, schedule: Q01DX009 (ip), vehicle: saline with Tween-80): 98 % of control | T/C [1]: 98 % of control | T/C [2]: 103 % of control | T/C [3]: 121 % of control | T/C [4]: 95 % of control

Cc1ccc(NC(=O)Oc2ccc(F)cc2Cl)cc1NC(=O)Oc1ccc(F)cc1Cl
T/C [5]: 103 % of control | T/C [6]: 101 % of control | T/C (endpoint: mean survival time, dose: 400.0 mg/kg/injection, schedule: Q01DX001 (ip), vehicle: saline with Tween-80): 95 % of control

O=C(C(=O)c1ccccc1)c1ccccc1
T/C (endpoint: mean survival time, dose: 100.0 mg/kg/injection, schedule: Q01DX009 (ip), vehicle: saline): 100 % of control | T/C (endpoint: mean survival time, dose: 200.0 mg/kg/injection, schedule: Q01DX009 (ip), vehicle: saline): 101 % of control | T/C (endpoint: mean survival time, dose: 400.0 mg/kg/injection, schedule: Q01DX009 (ip), vehicle: saline): 108 % of control

O=c1[nH]cnc2c1nc(NCc1ccccc1)n2C1OC(CO)C(O)C1O (centres undefined)
T/C (endpoint: mean survival time, dose: 12.5 mg/kg/injection, schedule: Q01DX005 (ip), vehicle: distilled water + Tween-80): 98 % of control | T/C (endpoint: mean survival time, dose: 25.0 mg/kg/injection, schedule: Q01DX005 (ip), vehicle: distilled water + Tween-80): 96 % of control | T/C (endpoint: mean survival time, dose: 50.0 mg/kg/injection, schedule: Q01DX005 (ip), vehicle: distilled water + Tween-80): 96 % of control | T/C (endpoint: mean survival time, dose: 100.0 mg/kg/injection, schedule: Q01DX005 (ip), vehicle: distilled water + Tween-80): 101 % of control | T/C (endpoint: mean survival time, dose: 150.0 mg/kg/injection, schedule: Q01DX005 (ip), vehicle: distilled water + Tween-80): 98 % of control

CC1(C)NC(=O)C2CC21C (centres undefined)
T/C (endpoint: mean survival time, dose: 25.0 mg/kg/injection, schedule: Q04DX002 (ip), vehicle: saline): 96 % of control | T/C (endpoint: mean survival time, dose: 50.0 mg/kg/injection, schedule: Q04DX002 (ip), vehicle: saline): 112 % of control | T/C (endpoint: mean survival time, dose: 100.0 mg/kg/injection, schedule: Q04DX002 (ip), vehicle: saline): 93 % of control

CC(C)=NNS(=O)(=O)c1ccc(C)cc1
T/C [7]: 102 % of control | T/C [8]: 96 % of control | T/C [9]: 93 % of control | T/C [10]: 86 % of control | T/C (endpoint: mean survival time, dose: 400.0 mg/kg/injection, schedule: Q01DX009 (ip), vehicle: Klucel (hydroxypropylcellulose) (HPC)): 91 % of control

CC(C)(C)OC(=O)CCC(NC(=O)OCc1ccccc1)C(=O)O (centres undefined)
T/C [11]: 93 % of control | T/C (endpoint: mean survival time, dose: 100.0 mg/kg/injection, schedule: Q01DX001 (ip), vehicle: saline sonified): 103 % of control | T/C [2]: 94 % of control | T/C (endpoint: mean survival time, dose: 200.0 mg/kg/injection, schedule: Q01DX001 (ip), vehicle: saline sonified): 109 % of control

CC(C)C(Br)C(Br)c1ccccc1 (centres undefined)
T/C (endpoint: mean survival time, dose: 100.0 mg/kg/injection, schedule: Q04DX003 (ip), vehicle: saline): 96 % of control | T/C (endpoint: mean survival time, dose: 200.0 mg/kg/injection, schedule: Q04DX003 (ip), vehicle: saline): 102 % of control

CCCCOC(=O)C(C)(C)O
T/C [2]: 96 % of control | T/C [3]: 102 % of control | T/C [4]: 98 % of control

CSc1cc(C)[o+]c(C)c1
T/C [12]: 94 % of control | T/C [7]: 97 % of control | T/C [8]: 108 % of control | T/C [9]: 113 % of control | T/C [10]: 117 % of control

Cc1ccc(NC(=O)OCCOc2ccc([N+](=O)[O-])cc2)c(C)c1
T/C [13]: 93 % of control | T/C [14]: 98 % of control | T/C [15]: 89 % of control

NNC(=O)c1nc2ccccc2s1
T/C (endpoint: mean survival time, dose: 37.5 mg/kg/injection, schedule: Q04DX003 (ip), vehicle: saline sonified): 97 % of control | T/C (endpoint: mean survival time, dose: 75.0 mg/kg/injection, schedule: Q04DX003 (ip), vehicle: saline sonified): 92 % of control | T/C (endpoint: mean survival time, dose: 150.0 mg/kg/injection, schedule: Q04DX003 (ip), vehicle: saline sonified): 94 % of control

COC1C(O)=C2C(=O)OC(C)(O)/C=C/C=C\C=C/C=C/C(c3ccccc3)NC(=O)/C=C/C=C/C=C/C=C/C2(C)C1O (centres undefined)
T/C (endpoint: mean survival time, dose: 6.25 mg/kg/injection, schedule: Q01DX009 (ip), vehicle: Klucel (hydroxypropylcellulose) (HPC)): 106 % of control | T/C [12]: 95 % of control | T/C [7]: 103 % of control

N#CCCCCCN=[N+]=[N-]
T/C (endpoint: mean survival time, dose: 75.0 mg/kg/injection, schedule: Q01DX001 (ip), vehicle: saline): 98 % of control | T/C (endpoint: mean survival time, dose: 150.0 mg/kg/injection, schedule: Q01DX001 (ip), vehicle: saline): 101 % of control

CCCCOC(=O)c1ccc(NC(=O)Nc2ccccc2)cc1
T/C [1]: 92 % of control | T/C [13]: 97 % of control | T/C [14]: 93 % of control

CCCC(=O)NN=C(C)C
T/C (endpoint: mean survival time, dose: 12.5 mg/kg/injection, schedule: Q04DX003 (ip), vehicle: saline): 105 % of control | T/C (endpoint: mean survival time, dose: 25.0 mg/kg/injection, schedule: Q04DX003 (ip), vehicle: saline): 104 % of control | T/C (endpoint: mean survival time, dose: 50.0 mg/kg/injection, schedule: Q04DX003 (ip), vehicle: saline): 107 % of control

Nc1nc(NNC(=O)CCCO)c2nonc2n1
T/C (endpoint: mean survival time, dose: 9.4 mg/kg/injection, schedule: Q01DX005 (ip), vehicle: other): 97 % of control | T/C (endpoint: mean survival time, dose: 18.8 mg/kg/injection, schedule: Q01DX005 (ip), vehicle: other): 109 % of control | T/C (endpoint: mean survival time, dose: 37.5 mg/kg/injection, schedule: Q01DX005 (ip), vehicle: other): 105 % of control | T/C (endpoint: mean survival time, dose: 75.0 mg/kg/injection, schedule: Q01DX005 (ip), vehicle: other): 105 % of control | T/C (endpoint: mean survival time, dose: 150.0 mg/kg/injection, schedule: Q01DX005 (ip), vehicle: other): 105 % of control

O=C(CNC(=O)Nc1ccc(F)cc1)N/N=C/c1c(O)ccc2ccccc12
T/C [13]: 92 % of control | T/C [14]: 96 % of control | T/C [15]: 96 % of control

COC1C(N)C(OC2C(Oc3cccc4c(O)c5c(=O)oc6ccc(C)c7c(=O)oc(c34)c5c67)OC(C)C(O)C2(C)O)OC(C)C1O (centres undefined)
T/C (endpoint: median survival time, dose: 1.25 mg/kg/injection, schedule: Q01DX005 (ip), vehicle: other): 151 % of control | T/C (endpoint: median survival time, dose: 3.0 mg/kg/injection, schedule: Q01DX005 (ip), vehicle: other): 177 % of control | T/C (endpoint: median survival time, dose: 5.0 mg/kg/injection, schedule: Q01DX005 (ip), vehicle: other): 164 % of control and 177 % of control

N#CCCN=C1C=CC(=C(c2ccc(NCCC#N)cc2)c2ccc(Cl)cc2Cl)C=C1
T/C (endpoint: mean survival time, dose: 100.0 mg/kg/injection, schedule: Q04DX002 (ip), vehicle: saline with Tween-80): 117 % of control

Cc1ccccc1S(=O)(=O)N(C)C
T/C (endpoint: mean survival time, dose: 100.0 mg/kg/injection, schedule: Q04DX003 (ip), vehicle: saline sonified): 97 % of control | T/C (endpoint: mean survival time, dose: 200.0 mg/kg/injection, schedule: Q04DX003 (ip), vehicle: saline sonified): 94 % of control | T/C (endpoint: mean survival time, dose: 400.0 mg/kg/injection, schedule: Q04DX003 (ip), vehicle: saline sonified): 92 % of control

O=C(O)c1c(Cl)c(Cl)c(Cl)c(Cl)c1Cl
T/C [2]: 98 % of control | T/C [3]: 98 % of control | T/C [4]: 98 % of control

CSc1ncc(C(=O)O)c(SC(C)C)n1
T/C [11]: 91 % of control | T/C [5]: 102 % of control | T/C [2]: 93 % of control | T/C [6]: 92 % of control | T/C [3]: 87 % of control
